According to ChEMBL document CHEMBL2413072, “Synthesis and in vitro anticancer studies of novel C-2 arylidene congeners of lantadenes” (2013):

What was measured:
Format in all cases: functional
[1] = tested on: COLO 205; experiment: Growth inhibition of human COLO205 cells by sulforhodamine B assay
[2] = tested on: LOX IMVI; experiment: Growth inhibition of human LOXIMVI cells assessed as cell growth at 10^-6 M by sulforhodamine B assay; settings: read-out: Activity
[3] = tested on: NCI-H226; experiment: Growth inhibition of human NCI-H226 cells by sulforhodamine B assay
[4] = tested on: OVCAR-5; experiment: Growth inhibition of human OVCAR5 cells assessed as cell growth at 10^-8 M by sulforhodamine B assay; settings: read-out: Activity
[5] = tested on: HT-29; experiment: Growth inhibition of human HT-29 cells by sulforhodamine B assay
[6] = Growth inhibition of human Hs 578T cells assessed as cell growth at 10^-6 M by sulforhodamine B assay; settings: read-out: Activity
[7] = tested on: A498; experiment: Growth inhibition of human A498 cells assessed as cell growth at 10^-4 M by sulforhodamine B assay; settings: read-out: Activity
[8] = tested on: NCI-H226; experiment: Growth inhibition of human NCI-H226 cells assessed as cell growth at 10^-4 M by sulforhodamine B assay; settings: read-out: Activity
[9] = tested on: SF-295; experiment: Growth inhibition of human SF295 cells assessed as cell growth at 10^-8 M by sulforhodamine B assay; settings: read-out: Activity
[10] = tested on: MDA-MB-435; experiment: Growth inhibition of human MDA-MB-435 cells assessed as cell growth at 10^-6 M by sulforhodamine B assay; settings: read-out: Activity
[11] = tested on: A549; experiment: Growth inhibition of human A549/ATCC cells assessed as cell growth at 10^-7 M by sulforhodamine B assay; settings: read-out: Activity
[12] = tested on: U-251; experiment: Growth inhibition of human U251 cells assessed as cell growth at 10^-7 M by sulforhodamine B assay; settings: read-out: Activity
[13] = tested on: OVCAR-5; experiment: Growth inhibition of human OVCAR5 cells assessed as cell growth at 10^-6 M by sulforhodamine B assay; settings: read-out: Activity
[14] = tested on: SNB-75; experiment: Growth inhibition of human SNB75 cells assessed as cell growth at 10^-6 M by sulforhodamine B assay; settings: read-out: Activity
[15] = tested on: PC-3; experiment: Growth inhibition of human PC3 cells by sulforhodamine B assay
[16] = tested on: HT-29; experiment: Growth inhibition of human HT-29 cells assessed as cell growth at 10^-6 M by sulforhodamine B assay; settings: read-out: Activity
[17] = tested on: A549; experiment: Growth inhibition of human A549/ATCC cells by sulforhodamine B assay
[18] = Growth inhibition of human HCC2998 cells assessed as cell growth at 10^-6 M by sulforhodamine B assay; settings: HCC 2998, read-out: Activity
[19] = tested on: SK-MEL-28; experiment: Growth inhibition of human SK-MEL-28 cells assessed as cell growth at 10^-6 M by sulforhodamine B assay; settings: read-out: Activity
[20] = tested on: SW-620; experiment: Growth inhibition of human SW620 cells assessed as cell growth at 10^-8 M by sulforhodamine B assay; settings: read-out: Activity
[21] = tested on: CAKI-1; experiment: Growth inhibition of human CAKI-1 cells assessed as cell growth at 10^-6 M by sulforhodamine B assay; settings: read-out: Activity
[22] = tested on: RPMI-8226; experiment: Growth inhibition of human RPMI8226 cells assessed as cell growth at 10^-6 M by sulforhodamine B assay; settings: read-out: Activity
[23] = tested on: A549; experiment: Growth inhibition of human A549/ATCC cells assessed as cell growth at 10^-8 M by sulforhodamine B assay; settings: read-out: Activity
[24] = tested on: NCI-H23; experiment: Growth inhibition of human NCI-H23 cells assessed as cell growth at 10^-8 M by sulforhodamine B assay; settings: read-out: Activity
[25] = tested on: HL-60(TB); experiment: Growth inhibition of human HL-60(TB) cells assessed as cell growth at 10^-6 M by sulforhodamine B assay; settings: read-out: Activity
[26] = tested on: SF-268; experiment: Growth inhibition of human SF268 cells assessed as cell growth at 10^-8 M by sulforhodamine B assay; settings: read-out: Activity
[27] = tested on: ACHN; experiment: Growth inhibition of human ACHN cells by sulforhodamine B assay
[28] = tested on: NCI-H322M; experiment: Growth inhibition of human NCI-H322M cells assessed as cell growth at 10^-8 M by sulforhodamine B assay; settings: read-out: Activity
[29] = tested on: SF-268; experiment: Growth inhibition of human SF268 cells by sulforhodamine B assay
[30] = tested on: MDA-MB-435; experiment: Growth inhibition of human MDA-MB-435 cells assessed as cell growth at 10^-7 M by sulforhodamine B assay; settings: read-out: Activity
[31] = tested on: DU-145; experiment: Growth inhibition of human DU145 cells by sulforhodamine B assay
[32] = tested on: SK-MEL-5; experiment: Growth inhibition of human SK-MEL-5 cells assessed as cell growth at 10^-6 M by sulforhodamine B assay; settings: read-out: Activity
[33] = tested on: SNB-19; experiment: Growth inhibition of human SNB19 cells assessed as cell growth at 10^-7 M by sulforhodamine B assay; settings: read-out: Activity
[34] = tested on: 786-0; experiment: Growth inhibition of human 786-0 cells assessed as cell growth at 10^-4 M by sulforhodamine B assay; settings: read-out: Activity
[35] = tested on: HT-29; experiment: Growth inhibition of human HT-29 cells assessed as cell growth at 10^-4 M by sulforhodamine B assay; settings: read-out: Activity
[36] = tested on: CAKI-1; experiment: Growth inhibition of human CAKI-1 cells by sulforhodamine B assay
[37] = tested on: MOLT-4; experiment: Growth inhibition of human MOLT4 cells assessed as cell growth at 10^-7 M by sulforhodamine B assay; settings: read-out: Activity
[38] = tested on: SK-MEL-5; experiment: Growth inhibition of human SK-MEL-5 cells assessed as cell growth at 10^-4 M by sulforhodamine B assay; settings: read-out: Activity
[39] = tested on: M14; experiment: Growth inhibition of human M14 cells assessed as cell growth at 10^-8 M by sulforhodamine B assay; settings: read-out: Activity
[40] = read-out: LC50 (the source's name)
[41] = read-out: pLC50 (the source's name) (converted)

CC1(C)C[C@@H](O)[C@]2(C(=O)O)CC[C@]3(C)C(=CC[C@@H]4[C@@]5(C)C/C(=C\C=C\c6ccccc6)C(=O)C(C)(C)[C@@H]5CC[C@]43C)[C@@H]2C1
GI50 ([1]; read-out: GI50): 1.97 µM | LC50 ([1]; read-out: LC50): 6.36 µM | TGI ([1]; read-out: TGI): 3.54 µM | GI50 ([1]; read-out: pGI50 (converted)): 2 µM | LC50 ([1]; read-out: pLC50 (converted)): 6.31 µM | TGI ([1]; read-out: pTGI (converted)): 3.55 µM | growth at 1 µM [2]: 101% | GI50 ([3]; read-out: GI50): 2.78 µM | LC50 ([3]; read-out: LC50): 56.2 µM | TGI ([3]; read-out: TGI): 12.8 µM | GI50 ([3]; read-out: pGI50 (converted)): 2.75 µM | LC50 ([3]; read-out: pLC50 (converted)): 56.2 µM | TGI ([3]; read-out: pTGI (converted)): 12.9 µM | growth at 0.01 µM [4]: 103% | GI50 ([5]; read-out: GI50): 2.68 µM | LC50 (50% cell kill) ([5]; read-out: LC50): 32.9 µM | TGI ([5]; read-out: TGI): 7.37 µM | GI50 ([5]; read-out: pGI50 (converted)): 2.69 µM | LC50 (50% cell kill) ([5]; read-out: pLC50 (converted)): 33.1 µM | TGI ([5]; read-out: pTGI (converted)): 7.41 µM | growth at 1 µM [6]: 87% | growth at 100 µM [7]: -97% | growth at 100 µM [8]: -70% | growth at 0.01 µM [9]: 99% | growth at 1 µM [10]: 95% | growth at 0.1 µM [11]: 95% | growth at 0.1 µM [12]: 95% | growth at 1 µM [13]: 93% | growth at 1 µM [14]: 79% | GI50 ([15]; read-out: GI50): 3.03 µM | CC50 [15, 40]: 63.7 µM | TGI ([15]; read-out: TGI): 16.3 µM | GI50 ([15]; read-out: pGI50 (converted)): 3.02 µM | CC50 [15, 41]: 63.1 µM | TGI ([15]; read-out: pTGI (converted)): 16.2 µM | growth at 1 µM [16]: 99% | GI50 ([17]; read-out: GI50): 2.8 µM | CC50 [17, 40]: 63.4 µM | TGI ([17]; read-out: TGI): 11.2 µM | GI50 ([17]; read-out: pGI50 (converted)): 2.82 µM | CC50 [17, 41]: 63.1 µM | TGI ([17]; read-out: pTGI (converted)): 11.2 µM | growth at 1 µM [18]: 108% | growth at 1 µM [19]: 97% | growth at 0.01 µM [20]: 99% | growth at 1 µM [21]: 92% | growth at 1 µM [22]: 92% | growth at 0.01 µM [23]: 98% | growth at 0.01 µM [24]: 95% | growth at 1 µM [25]: 112% | growth at 0.01 µM [26]: 93% | GI50 ([27]; read-out: GI50): 3.65 µM | CC50 [27, 40]: 39.2 µM | TGI ([27]; read-out: TGI): 13.3 µM | GI50 ([27]; read-out: pGI50 (converted)): 3.63 µM | CC50 [27, 41]: 38.9 µM | TGI ([27]; read-out: pTGI (converted)): 13.2 µM | growth at 0.01 µM [28]: 98% | GI50 ([29]; read-out: GI50): 3.36 µM | LC50 ([29]; read-out: LC50): 45.5 µM | TGI ([29]; read-out: TGI): 14 µM | GI50 ([29]; read-out: pGI50 (converted)): 3.39 µM | LC50 ([29]; read-out: pLC50 (converted)): 45.7 µM | TGI ([29]; read-out: pTGI (converted)): 14.1 µM | growth at 0.1 µM [30]: 96% | GI50 ([31]; read-out: GI50): 4.23 µM | CC50 [31, 40]: 41.7 µM | TGI ([31]; read-out: TGI): 14.9 µM | GI50 ([31]; read-out: pGI50 (converted)): 4.27 µM | CC50 [31, 41]: 41.7 µM | TGI ([31]; read-out: pTGI (converted)): 14.8 µM | growth at 1 µM [32]: 95% | growth at 0.1 µM [33]: 89% | growth at 100 µM [34]: -85% | growth at 100 µM [35]: -83% | GI50 ([36]; read-out: GI50): 3.57 µM | CC50 [36, 40]: > 100 µM | TGI ([36]; read-out: TGI): 17.7 µM | GI50 ([36]; read-out: pGI50 (converted)): 3.55 µM | CC50 [36, 41]: > 100 µM | TGI ([36]; read-out: pTGI (converted)): 17.8 µM | growth at 0.1 µM [37]: 97% | growth at 100 µM [38]: -99% | growth at 0.01 µM [39]: 97%
